Test results as given in BindingDB's records for doi:10.1021/jm060168g (Wyeth Research, 2006).
pIC50: −log10 of the molar value.

Target: Huh7 (Homo sapiens)
Assay: Cytotoxicity against human Huh7 cell line containing HCV genotype 1b replicon

O=C(O)[C@@H]1CCCN1S(=O)(=O)c1cc(Cl)c(Cl)c(Cl)c1O [(S)-1-(3,4,5-trichloro-2-hydroxyphenylsulfonyl)pyrrolidine-2-carboxylic acid]
pIC50: < 4.00
